Data on one substance can be found in US20110092624A1, “INK COMPOSITION AND METHOD FOR PRODUCING THE SAME” (SEIKO EPSON CORPORATION, priority 2009, published 2011).

The data set can be described thus: Solubility of acidic dye and by-product in solvents, rated by filter cake weight. Type of data set: physicochemical. The settings on record: 10 g solvent, filtered 0.2 μm, dried filter cake weighed. The protocol: The acidic dye was C. I. Acid Blue 290. The acidic dye was added to 10 g of each organic solvent and the organic solvent was agitated, whereby the acidic dye was dissolved in the organic solvent. A solution thereby obtained was filtered through an Omnipore membrane filter, having a pore size of 0.2 μm, available from Nihon Millipore K.K. A filter cake thereby obtained was dried and then weighed. A by-product represented by the following formula was measured for solubility in the same manner as that used to measure the acidic dye:
The solubility of the acidic dye and by-product in each organic solvent was evaluated on the basis of the weight of the filter cakes. Evaluation standards were as described below.
A rating of 5: 0 to less than 0.2 g of a filter cake
A rating of 4: 0.2 to less than 0.4 g of a filter cake
A rating of 3: 0.4 to less than 0.6 g of a filter cake
A rating of 2: 0.6 to less than 0.8 g of a filter cake
A rating of 1: 0.8 g or more of a filter cake

In the case of C. I. Acid Blue 290 [Acidic dye], the Solubility rating is, setting by setting: (Acetone) 1 (A rating of 1: 0.8 g or more of a filter cake); (Acrylonitrile) 3 (A rating of 3: 0.4 to less than 0.6 g of a filter cake); (Chloroform) 4 (A rating of 4: 0.2 to less than 0.4 g of a filter cake); (Ethanol) 3 (A rating of 3: 0.4 to less than 0.6 g of a filter cake); (Hexane) 2 (A rating of 2: 0.6 to less than 0.8 g of a filter cake); (Methanol) 5 (A rating of 5: 0 to less than 0.2 g of a filter cake). Besides, the Solubility rating is, setting by setting: (Tetrahydrofuran) 4 (A rating of 4: 0.2 to less than 0.4 g of a filter cake); (Water) 1 (A rating of 1: 0.8 g or more of a filter cake).
